The values that follow come from ChEMBL document CHEMBL1201862, “PubChem BioAssay data set” (2004).

Among the test systems are TK-10; T47D; HCT-15; K562; COLO 205; SNB-75; HCT-116; IGROV-1; UACC-62; MDA-MB-231; HL-60; PC-3; NCI-H522; DMS-114; CAKI-1; SF-268; SK-OV-3; DLD-1; NCI-H226; RPMI-8226.
Common to all, as to assay: inhibition of tumour cell growth, NCI panel, 48 h

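Method: 48-hour compound exposure of cells in 96-well plates, five concentrations, linear interpolation of endpoints. Abbreviation: GI50, concentration required for 50% inhibition of growth.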 Activity calls are given as the source filed them. Rule as the data show it: active = GI50 up to about 1.1 µM and inactive = higher.

Consider `O=C1CCC(C(=O)O)C2=C1CCCC2` (stereo not given), for which the GI50 in the assay with TK-10 was > 100 µM (inactive); in the assay with T47D, > 100 µM (inactive); with HCT-15, > 100 µM; with K562, > 100 µM (inactive); in the assay with COLO 205, > 100 µM (inactive); in the assay on SNB-75, > 100 µM (inactive). Also, the GI50 in the assay with HCT-116, in the assay with IGROV-1, in the assay on UACC-62, with MDA-MB-231, in the assay with HL-60 and in the assay on PC-3 was > 100 µM (inactive) in each case. Further, the GI50 in the assay with NCI-H522 was > 100 µM (inactive); in the assay with DMS-114, > 100 µM (inactive); with CAKI-1, > 100 µM (inactive); with SF-268, > 100 µM (inactive); in the assay with SK-OV-3, > 43.4 µM (inactive); in the assay on DLD-1, > 100 µM (inactive). For the same compound, the GI50 in the assay on NCI-H226 was > 14.4 µM (inactive); in the assay with RPMI-8226 it was > 100 µM (inactive).

Regarding `N=C(N)NS(=O)(=O)c1ccc(Nc2c3ccccc3nc3c(C(=O)Nc4ccc(S(N)(=O)=O)cc4)ccc(Cl)c23)cc1`, the GI50 in the assay with TK-10 was > 100 µM (inactive); in the assay on HCT-15 it was > 100 µM; in the assay on K562, > 100 µM (inactive); in the assay on COLO 205, > 100 µM (inactive); in the assay on SNB-75, > 100 µM (inactive); in the assay with HCT-116, > 100 µM (inactive). The GI50 in the assay on IGROV-1 was > 100 µM (inactive); in the assay with UACC-62, > 100 µM (inactive); with HL-60, 47.8 µM (inactive); in the assay on NCI-H522, > 100 µM (inactive); in the assay on DMS-114, > 100 µM (inactive); in the assay with CAKI-1, > 100 µM (inactive). Also, the GI50 in the assay with SF-268, in the assay on SK-OV-3, in the assay with DLD-1, in the assay on NCI-H226 and with RPMI-8226 was > 100 µM (inactive) each time.

As for `CC(C)N1CN(C(C(=O)N[C@@H]2C(=O)N3C2SC(C)(C)C3C(=O)O)c2ccc(O)cc2)CSC1=S` (stereo not given in full), the GI50 in the assay with TK-10 was > 100 µM (inactive); in the assay with HCT-15 it was 43 µM; with K562, 31.8 µM (inactive); in the assay with COLO 205, 33.8 µM (inactive); in the assay with SNB-75, > 100 µM (inactive); in the assay with HCT-116, > 100 µM (inactive). Moreover, the GI50 in the assay with IGROV-1 is > 100 µM (inactive); with UACC-62 it was > 100 µM (inactive); in the assay with HL-60, > 100 µM (inactive); in the assay on NCI-H522, 41 µM (inactive); in the assay on DMS-114, > 100 µM (inactive); in the assay with CAKI-1 it was > 100 µM (inactive). The GI50 in the assay with SF-268 was > 100 µM (inactive); in the assay with SK-OV-3, > 100 µM (inactive); with DLD-1 it was > 100 µM (inactive); in the assay on RPMI-8226 it was 94.2 µM (inactive).

For `COc1ccc(-c2cc(=O)c3cc(O)ccc3o2)c(OC)c1OC`, the GI50 with TK-10 was 39.4 µM (inactive); in the assay with HCT-15 it was 31.8 µM; in the assay with K562, 24.8 µM (inactive); in the assay with COLO 205 it was 75.2 µM (inactive); in the assay on SNB-75, 23.1 µM (inactive); in the assay with HCT-116, 26.5 µM (inactive). Further, the GI50 in the assay with IGROV-1 was 42.8 µM (inactive); in the assay with UACC-62, 28.7 µM (inactive); with HL-60, 15.7 µM (inactive); in the assay with NCI-H522, 18.2 µM (inactive); with DMS-114 it was 27.9 µM (inactive); with CAKI-1 it was 34.5 µM (inactive). For the same compound, the GI50 was 24.8 µM (inactive) in the assay on SF-268; 35.3 µM (inactive) with SK-OV-3; 36.4 µM (inactive) with DLD-1; 41.6 µM (inactive) with NCI-H226; 12.9 µM (inactive) in the assay with RPMI-8226.

On to `C=C1C(=O)OC2C1CC[C@H](C)C13OC(=O)CC1[C@@]23C` (stereo not given in full), for which the GI50 in the assay on TK-10, in the assay with K562, with COLO 205, in the assay on SNB-75, in the assay on HCT-116 and in the assay with IGROV-1 was > 100 µM (inactive) throughout. Besides, the GI50 is > 100 µM (inactive) in the assay with UACC-62; > 100 µM (inactive) in the assay with HL-60; 48.3 µM (inactive) with NCI-H522; > 100 µM (inactive) in the assay with DMS-114; > 100 µM (inactive) in the assay on CAKI-1; > 100 µM (inactive) with SF-268. Also, the GI50 in the assay on SK-OV-3, in the assay on DLD-1, in the assay with NCI-H226 and in the assay with RPMI-8226 was > 100 µM (inactive) each time.

Consider `CC(C)OP(=O)(OC(C)C)/C(=N/Nc1ccc([N+](=O)[O-])cc1)Nc1ccccc1`, for which the GI50 is 12.4 µM (inactive) in the assay with TK-10; 32.4 µM with HCT-15; 21.1 µM (inactive) in the assay with K562; 21.6 µM (inactive) in the assay with COLO 205; 36.6 µM (inactive) in the assay on SNB-75; 16.4 µM (inactive) with HCT-116. Besides, the GI50 was 10.8 µM (inactive) in the assay with UACC-62; 18.2 µM (inactive) in the assay on HL-60; 17.9 µM (inactive) in the assay on NCI-H522; 20.4 µM (inactive) with DMS-114; 34.7 µM (inactive) in the assay with CAKI-1; 25 µM (inactive) in the assay with SF-268. Further, the GI50 in the assay with DLD-1 is 28.1 µM (inactive); in the assay with NCI-H226 it was 16.4 µM (inactive); in the assay with RPMI-8226, 20.3 µM (inactive).

For `COc1ccc(/N=C\c2ccc(N(CCC#N)CCC#N)cc2)cc1`, the GI50 is 64.1 µM (inactive) with TK-10; > 100 µM (inactive) in the assay on T47D; 17.4 µM in the assay on HCT-15; 7.62 µM (inactive) with K562; 44.2 µM (inactive) in the assay with COLO 205; > 100 µM (inactive) with SNB-75. Further, the GI50 is 63.8 µM (inactive) in the assay with HCT-116; 82 µM (inactive) in the assay with IGROV-1; 16.6 µM (inactive) with UACC-62; > 100 µM (inactive) in the assay on MDA-MB-231; 22.3 µM (inactive) with HL-60; 47 µM (inactive) with PC-3. The GI50 with NCI-H522 was > 95.1 µM (inactive); in the assay with DMS-114 it was 27.5 µM (inactive); in the assay with CAKI-1, 69.2 µM (inactive); in the assay with SF-268 it was 53.2 µM (inactive); in the assay on SK-OV-3, > 100 µM (inactive); in the assay with DLD-1, 24.9 µM (inactive). In addition, the GI50 with NCI-H226 was > 100 µM (inactive); in the assay on RPMI-8226 it was 59 µM (inactive).

Take `COC1=CC(=O)c2c(O)c3c(c(O)c2C1=O)C[C@](C)(O)C[C@@H]3O`: the GI50 in the assay with TK-10 was 23.2 µM (inactive); in the assay with T47D it was 6.98 µM (inactive); with HCT-15, 4.01 µM; with K562 it was 4.24 µM (inactive); in the assay on COLO 205, 1.77 µM (inactive); in the assay on SNB-75, 9.42 µM (inactive). For the same compound, the GI50 with HCT-116 is 2.61 µM (inactive); with IGROV-1, 4.61 µM (inactive); in the assay with UACC-62 it was 1.46 µM (inactive); in the assay on MDA-MB-231, 7.74 µM (inactive); with HL-60 it was 1.62 µM (inactive); in the assay with PC-3, 3.4 µM (inactive). For the same compound, the GI50 in the assay with NCI-H522 is 4.52 µM (inactive); in the assay on DMS-114, 1.46 µM (inactive); in the assay with CAKI-1, 17.4 µM (inactive); in the assay on SF-268, 5.25 µM (inactive); in the assay with SK-OV-3, 14.1 µM (inactive); in the assay on DLD-1, 1.31 µM (inactive). The figures for the GI50 in the assay on NCI-H226 and in the assay with RPMI-8226 were 23.9 µM (inactive) and 8.11 µM (inactive), respectively.

As for `O=S1(=O)OCCOS(=O)(=O)C1(Br)Cc1ccccc1`, the GI50 in the assay with TK-10 was > 100 µM (inactive); in the assay with HCT-15 it was > 100 µM; in the assay on K562 it was > 100 µM (inactive); in the assay with COLO 205, > 100 µM (inactive); with SNB-75, 33 µM (inactive); in the assay on HCT-116, > 100 µM (inactive). In addition, the GI50 in the assay with IGROV-1, in the assay with UACC-62, in the assay on HL-60, in the assay with NCI-H522, in the assay with DMS-114 and in the assay on SF-268 was > 100 µM (inactive) in each case. Moreover, the GI50 in the assay on SK-OV-3, with DLD-1, in the assay on NCI-H226 and with RPMI-8226 was > 100 µM (inactive) in each case.

Consider `c1cc2ccc1C1NCCCN1CCN1CCCNC1c1ccc(cc1)C1NCCCN1CCN1CCCNC21` (stereo not given), for which the GI50 is > 100 µM (inactive) with TK-10; 61.8 µM in the assay with HCT-15; 37 µM (inactive) in the assay on K562; 54.3 µM (inactive) with COLO 205; > 100 µM (inactive) with SNB-75; 42.6 µM (inactive) with HCT-116. Besides, the GI50 was > 100 µM (inactive) in the assay on IGROV-1; > 100 µM (inactive) in the assay with UACC-62; 20.1 µM (inactive) in the assay with HL-60; 23.1 µM (inactive) with NCI-H522; > 100 µM (inactive) with DMS-114; > 100 µM (inactive) with CAKI-1. Moreover, the GI50 with SF-268 was > 100 µM (inactive); in the assay with SK-OV-3, > 100 µM (inactive); in the assay on DLD-1, > 100 µM (inactive); with RPMI-8226 it was 70.6 µM (inactive).

As for `CC(=O)C1(O)CC2(c3ccccc3)C(=O)C1(c1ccccc1)C(c1ccccc1)=C2c1ccccc1` (stereo not given), the GI50 in the assay with TK-10 is > 100 µM (inactive); with HCT-15 it was > 100 µM; in the assay on K562, 26.1 µM (inactive); in the assay with COLO 205 it was > 100 µM (inactive); in the assay on SNB-75 it was 38.7 µM (inactive); with HCT-116, 30.9 µM (inactive). The GI50 was > 100 µM (inactive) in the assay with IGROV-1; 79.4 µM (inactive) in the assay with UACC-62; 29.4 µM (inactive) with HL-60; 66.8 µM (inactive) in the assay with NCI-H522; 10.9 µM (inactive) in the assay with DMS-114; > 100 µM (inactive) in the assay on CAKI-1. Further, the GI50 is > 100 µM (inactive) in the assay on SF-268; > 100 µM (inactive) with SK-OV-3; > 100 µM (inactive) in the assay on DLD-1; > 100 µM (inactive) with NCI-H226; 16.5 µM (inactive) in the assay with RPMI-8226.
